According to US20250331519A1, “HERBICIDAL DERIVATIVES” (SYNGENTA CROP PROTECTION AG, priority 2022, published 2025):

What was measured:
Type in all cases: in vivo
[1] = test system: Ipomoea hederacea (IPOHE); assay: Pre-emergence herbicidal glasshouse test; details: evaluated after 13 days, five-point scale
Setaria faberi (SETFA) [2] = assay: Pre-emergence herbicidal glasshouse test; details: evaluated after 13 days, five-point scale
Zea mays (ZEAMX) [3] = assay: Pre-emergence herbicidal glasshouse test; details: evaluated after 13 days, five-point scale
[4] = test system: Echinochloa crus-galli (ECHCG); assay: Pre-emergence herbicidal glasshouse test; details: evaluated after 13 days, five-point scale
[5] = test system: Amaranthus palmeri (AMAPA); assay: Pre-emergence herbicidal glasshouse test; details: evaluated after 13 days, five-point scale
[6] = test system: Amaranthus retoflexus (AMARE); assay: Pre-emergence herbicidal glasshouse test; details: evaluated after 13 days, five-point scale
[7] = test system: Amaranthus palmeri (AMAPA); assay: Post-emergence herbicidal glasshouse test; details: sprayed after 8 days cultivation, evaluated after 13 days, five-point scale
Procedure: (§1) Seeds of a variety of test species are sown in standard soil in pots (Ipomoea hederacea (IPOHE), Setaria faberi (SETFA), Zea mays (ZEAMX), Echinochloa crus-galli (ECHCG), Amaranthus palmeri (AMAPA), Amaranthus retoflexus (AMARE)). After 8 days cultivation under controlled conditions in a glasshouse (at 24° C./16° C., day/night; 14 hours light; 65% humidity), the plants are sprayed with an aqueous spray solution derived from the formulation of the technical active ingredient in acetone/water (50:50) solution containing 0.5% Tween 20 (polyoxyethelyene sorbitan monolaurate, CAS RN 9005-64-5). Compounds are applied at 1000 g/ha unless otherwise stated. The test plants are then grown in a glasshouse under controlled conditions in a glasshouse (at 24° C./16° C., day/night; 14 hours light; 65% humidity) and watered twice daily. After 13 days the test is evaluated for the percentage damage caused to the plant. The biological activities are shown in the following table on a five-point scale (5=81-100%; 4=61-80%; 3=41-60%; 2=21-40%; 1=0-20%; -=not tested).

[8] = test system: Amaranthus retoflexus (AMARE); assay: Post-emergence herbicidal glasshouse test; details: sprayed after 8 days cultivation, evaluated after 13 days, five-point scale
Procedure: as §1

[9] = test system: Echinochloa crus-galli (ECHCG); assay: Post-emergence herbicidal glasshouse test; details: sprayed after 8 days cultivation, evaluated after 13 days, five-point scale
Procedure: as §1

[10] = test system: Ipomoea hederacea (IPOHE); assay: Post-emergence herbicidal glasshouse test; details: sprayed after 8 days cultivation, evaluated after 13 days, five-point scale
Procedure: as §1

Setaria faberi (SETFA) [11] = assay: Post-emergence herbicidal glasshouse test; details: sprayed after 8 days cultivation, evaluated after 13 days, five-point scale
Procedure: as §1

Zea mays (ZEAMX) [12] = assay: Post-emergence herbicidal glasshouse test; details: sprayed after 8 days cultivation, evaluated after 13 days, five-point scale
Procedure: as §1

Compound | percentage damage caused to the plant, IPOHE ([1]; 1000 g/ha) | percentage damage caused to the plant, SEFTA (Setaria faberi (SETFA) [2]; 1000 g/ha) | percentage damage caused to the plant, ZEAMX (Zea mays (ZEAMX) [3]; 1000 g/ha) | percentage damage caused to the plant, ECHCG ([4]; 1000 g/ha) | percentage damage caused to the plant, ECHCG ([9]; 1000 g/ha) | percentage damage caused to the plant, IPOHE ([10]; 1000 g/ha) | percentage damage caused to the plant, SEFTA (Setaria faberi (SETFA) [11]; 1000 g/ha) | percentage damage caused to the plant, ZEAMX (Zea mays (ZEAMX) [12]; 1000 g/ha) | further results
CCn1c(C)c(-n2ccc(C(F)(F)F)n2)c(=O)c(C(=O)O)c1-c1ccc(Cl)c(Cl)c1 [Compound 1, 2-(3,4-dichlorophenyl)-1-ethyl-6-methyl-4-oxo-5-[3-(trifluoromethyl)pyrazol-1-yl]pyridine-3-carboxylic acid] | 4 (4=61-80%) | 1 (1=0-20%) | 0 | 0 | 1 (1=0-20%) | 2 (2=21-40%) | 1 (1=0-20%) | 1 (1=0-20%) | percentage damage caused to the plant, AMAPA ([5]; 1000 g/ha): 0; percentage damage caused to the plant, AMARE ([6]; 1000 g/ha): 0; percentage damage caused to the plant, AMAPA ([7]; 1000 g/ha): 3 (3=41-60%); percentage damage caused to the plant, AMARE ([8]; 1000 g/ha): 2 (2=21-40%)
CCn1c(C)c(-n2cc(Cl)cn2)c(=O)c(C(=O)O)c1-c1ccc(Cl)c(Cl)c1 [Compound 3, 5-(4-chloropyrazol-1-yl)-2-(3,4-dichlorophenyl)-1-ethyl-6-methyl-4-oxo-pyridine-3-carboxylic acid] | – | – | – | – | – | – | – | – | percentage damage caused to the plant, IPOHE ([1]; 250 g/Ha): 0; percentage damage caused to the plant, SEFTA (Setaria faberi (SETFA) [2]; 250 g/Ha): 2 (2=21-40%); percentage damage caused to the plant, ZEAMX (Zea mays (ZEAMX) [3]; 250 g/Ha): 0; percentage damage caused to the plant, ECHCG ([4]; 250 g/Ha): 1 (1=0-20%); percentage damage caused to the plant, AMAPA ([5]; 250 g/Ha): 0; percentage damage caused to the plant, AMARE ([6]; 250 g/Ha): 0; percentage damage caused to the plant, AMAPA ([7]; 250 g/Ha): 3 (3=41-60%); percentage damage caused to the plant, AMARE ([8]; 250 g/Ha): 3 (3=41-60%); percentage damage caused to the plant, ECHCG ([9]; 250 g/Ha): 3 (3=41-60%); percentage damage caused to the plant, IPOHE ([10]; 250 g/Ha): 2 (2=21-40%); percentage damage caused to the plant, SEFTA (Setaria faberi (SETFA) [11]; 250 g/Ha): 3 (3=41-60%); percentage damage caused to the plant, ZEAMX (Zea mays (ZEAMX) [12]; 250 g/Ha): 2 (2=21-40%)
CCn1c(C)c(-n2ccc(Cl)n2)c(=O)c(C(=O)O)c1-c1ccc(Cl)c(Cl)c1 [Compound 2, 5-(3-chloropyrazol-1-yl)-2-(3,4-dichlorophenyl)-1-ethyl-6-methyl-4-oxo-pyridine-3-carboxylic acid] | 4 (4=61-80%) | 3 (3=41-60%) | 1 (1=0-20%) | 0 | 4 (4=61-80%) | 4 (4=61-80%) | 4 (4=61-80%) | 3 (3=41-60%) | –
